Patent publication US20170166558A1, “O-GLCNAC TRANSFERASE (OGT) INHIBITORS AND USES THEREOF” (President and Fellows of Harvard College, priority 2014, published 2017)
Several values for one entry are separate records, joined by “and”; a condition that tells them apart may be missing. Equal entries are not always repeated.

How the values were obtained:
sOGT = molecular target: T1, sOGT (Homo sapiens, UniProt O15294); assay: Fluorescence polarization displacement screen with fluorescein-linked UDP-GlcNAc analog; format: binding; conditions: fluorescence displacement in vitro assay; read-out: IC50 (sOGT inhibition)
T1 sequence (O15294 1-665 isoform O15294-4): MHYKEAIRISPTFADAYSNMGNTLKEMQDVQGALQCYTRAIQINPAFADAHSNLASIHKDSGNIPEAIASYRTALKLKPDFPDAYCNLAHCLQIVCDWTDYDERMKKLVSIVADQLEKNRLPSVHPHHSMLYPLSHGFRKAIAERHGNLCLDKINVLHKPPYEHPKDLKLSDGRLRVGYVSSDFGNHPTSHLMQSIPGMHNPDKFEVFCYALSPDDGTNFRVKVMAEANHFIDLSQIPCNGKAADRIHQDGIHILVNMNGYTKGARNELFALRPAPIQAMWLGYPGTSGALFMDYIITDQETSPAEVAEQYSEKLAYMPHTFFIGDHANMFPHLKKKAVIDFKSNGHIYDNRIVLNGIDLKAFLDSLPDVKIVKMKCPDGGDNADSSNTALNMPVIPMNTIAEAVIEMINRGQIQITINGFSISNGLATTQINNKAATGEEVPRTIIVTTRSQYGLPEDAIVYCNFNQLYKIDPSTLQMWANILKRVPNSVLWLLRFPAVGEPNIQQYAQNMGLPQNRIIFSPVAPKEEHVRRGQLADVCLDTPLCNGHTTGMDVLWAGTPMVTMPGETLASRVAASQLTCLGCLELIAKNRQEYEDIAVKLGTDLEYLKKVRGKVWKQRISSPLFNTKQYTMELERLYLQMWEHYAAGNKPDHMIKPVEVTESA
Protocol: About 1000 compound library was serially diluted in DMSO from the 5 mg/ml plates fivefold 3 times, such that 4 different concentrations of compounds were prepared. Compound libraries of the 4 concentrations in duplicated were then transferred to the assay plates using a 100 nL pin array, resulting in a final compound concentration of 25 μg/mL or ˜70 μM at the highest of the four concentrations, assuming an average compound MW of 350. Using a Perkin Elmer Envision® microplate reader, the sample was excited at 480 nm in the vertical plane, and simultaneous emission intensity (535 nm) of the vertical and horizontal polarization planes was measured. The polarization was calculated using the following equation:eq4: mP=1000*(V−G*H)/(V+G*H)where: mP=millipolarization units, V=intensity of vertically polarized emission (RFU), H=intensity of horizontally polarized emission (RFU), and G=gain.
Compounds were screened at […] different concentrations in a fluorescence displacement assay (FIG. 13A)^27. Using the known binding constant for the substrate analog, the dose-response data allowed us to estimate binding affinities (Ki values) for the hits. […] Various analogs were prepared based on a modular assembly (as in FIG. 13B), and OGT inhibition was assessed both in vitro and in cells.

[1] = tested on: CHO, HEK-293, HeLa and D283-Med cells; assay: Immunoblotting of global O-GlcNAcylation in various mammalian cell types; format: cell-based; conditions: 50 μM, 24 hours
Protocol: (§1) In vivo inhibition of glycosylation: For all immunoblotting experiments, CHO-K1 (CHO) cells were grown in F12-K media supplemented with 10% FBS and antibiotics at 37° C. in a 5% CO2 incubator. Cells were treated by adding indicated inhibitor in DMSO vehicle (0.5% final vehicle concentration) upon reaching 70% confluence. After indicated treatment length, cells were harvested by aspirating growth media and washing with ice cold 1× PBS. Cells were subsequently lysed in boiling 1% SDS/20 mM HEPES 7.9. After cooling to room temperature, 1 mM PMSF, 10 μM PUGNAC, 10 μM TMG and 1× Complete protease inhibitor cocktail were added to the solution. The mixture was sonicated and then subjected to a 5 minute incubation at 95° C. The samples were centrifuged for 15 minutes at 20,000×g and the supernatant was collected and the total protein was measured by BCA assay (BIO-RAD).
The sample was separated by SDS-PAGE (Bio-Rad 4-15%, Cat: 345-0028), transferred to a nitrocellulose membrane (iBlot, Invitrogen) and probed with the indicated antibody. Tyipcally, membranes were blocked with 4% BSA in 1× TBS+0.04% tween-20 for 1 hour before incubating with antibody (typically diluted 1:1000 in 4% BSA inlx TBS+0.04% tween-20) overnight at 4° C. […]

[2] = tested on: cell surface glycans of CHO cells; assay: Lectin blots of cell surface glycans of CHO cells; format: cell-based, Chinese hamster; conditions: 50 μM, 24 hours
Protocol: Lectin blots were performed with the CHO-K1 cell lysate as prepared above. […] The biotin label on the lectins was visualized with incubation with Streptavidin-HRP (Pierce) followed by ECL detection and imaging.

OGT in CHO cells [3] = assay: Markers of OGT inhibition in CHO cells (Nup62 mass shift, OGA levels, H2B-S112 O-GlcNAc); format: cell-based, Chinese hamster
Protocol: as §1
(§2) The sample was separated by SDS-PAGE (Bio-Rad 4-15%, Cat: 345-0028), transferred to a nitrocellulose membrane (iBlot, Invitrogen) and probed with the indicated antibody. Tyipcally, membranes were blocked with 4% BSA in 1× TBS+0.04% tween-20 for 1 hour before incubating with antibody (typically diluted 1:1000 in 4% BSA inlx TBS+0.04% tween-20) overnight at 4° C. Membranes were then washed three times with 1× TBS+0.04% tween-20 and incubated with secondary antibody (typically diluted 1:5000 in 4% BSA in 1× TBS+0.04% tween-20) for 1 hour at room temperature. Lastly, membranes were washed 3× with 1× TBS+0.04% tween-20 and imaged with ECL. D283-Med cells were treated as above but grown in F12-K media supplemented with 10% FBS and antibiotics. HEK, HeLa and LNCaP cells were treated as above but grown in RPMI media supplemented with 10% FBS and antibiotics.

OGT in CHO cells [4] = assay: Immunoblotting of global O-GlcNAcylation (RL2) in CHO cells; format: cell-based, Chinese hamster
Protocol: as §1, §2

[5] = molecular target: T2, full length human OGT (ncOGT) (Homo sapiens, UniProt O15294); assay: UDP-Glo luminescence-based coupled enzyme assay; format: biochemical; conditions: 40 μM UDP-GlcNAc, 125 μM CKII3K peptide; read-out: IC50 against ncOGT, coupled enzyme assay
T2 construct: made in house
T2 sequence (O15294 1-1046): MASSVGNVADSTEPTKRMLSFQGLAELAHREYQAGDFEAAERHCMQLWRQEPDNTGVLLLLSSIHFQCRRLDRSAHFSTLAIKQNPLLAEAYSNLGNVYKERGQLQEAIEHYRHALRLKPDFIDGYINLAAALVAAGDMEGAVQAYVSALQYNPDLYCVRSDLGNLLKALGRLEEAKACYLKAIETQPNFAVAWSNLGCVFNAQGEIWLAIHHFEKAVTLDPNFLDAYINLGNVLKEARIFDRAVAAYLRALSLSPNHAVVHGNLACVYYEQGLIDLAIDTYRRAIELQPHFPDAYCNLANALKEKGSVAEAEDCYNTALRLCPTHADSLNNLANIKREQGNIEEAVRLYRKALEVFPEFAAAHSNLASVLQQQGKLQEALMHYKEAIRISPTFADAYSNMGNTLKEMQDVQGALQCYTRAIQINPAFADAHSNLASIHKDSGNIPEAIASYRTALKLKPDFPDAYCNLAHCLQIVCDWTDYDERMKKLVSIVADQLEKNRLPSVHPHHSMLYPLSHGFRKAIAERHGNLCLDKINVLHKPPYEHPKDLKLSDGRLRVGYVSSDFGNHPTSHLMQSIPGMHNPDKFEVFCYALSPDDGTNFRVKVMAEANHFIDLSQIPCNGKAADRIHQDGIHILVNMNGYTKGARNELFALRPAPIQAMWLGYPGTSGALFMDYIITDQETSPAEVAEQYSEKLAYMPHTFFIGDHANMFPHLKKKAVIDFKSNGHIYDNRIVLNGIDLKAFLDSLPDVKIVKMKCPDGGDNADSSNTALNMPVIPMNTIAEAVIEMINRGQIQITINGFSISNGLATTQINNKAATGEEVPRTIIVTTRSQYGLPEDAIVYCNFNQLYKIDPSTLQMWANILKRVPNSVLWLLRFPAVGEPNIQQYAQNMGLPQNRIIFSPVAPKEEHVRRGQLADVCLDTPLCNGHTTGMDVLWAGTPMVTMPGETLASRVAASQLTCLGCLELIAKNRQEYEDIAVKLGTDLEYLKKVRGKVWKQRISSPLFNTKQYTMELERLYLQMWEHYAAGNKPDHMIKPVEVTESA
Protocol: UDP-Glo assay: Materials for this assay were obtained from Promega (catalog #V6961), and the experiment was performed largely as outlined by the manufacturer. IC50 values were determined in the range of 0 to 100 μM (eleven concentration points). Assays were performed either in white, 96-well or ½-volume 96-well, plates. This assay was run with 125 μM CKII3K peptide acceptor. Reaction volumes were between 14 (half volume plates) and 20 (normal volume plates) μL. Reactions contained the following components: 300 nM ncOGT, 125 μM CKII3K and 40 μM UDP-GlcNAc in 1× PBS pH 7.4 supplemented with 1 mM THP. Reactions were incubated for one hour at 25° C. and quenched by the addition of an equal volume of UDP-Glo nucleotide detection reagent, prepared and used according to manufacturer guidelines. The quenched reactions were then mixed briefly by shaking at 1800 rpm in a Thermomixer C, and incubated for one hour at room temperature prior to reading luminescence, as per the manufacturers guidelines. Data were analyzed by Microsoft Excel and Prism 6 (Graphpad). When evaluating the effect of sugar donor concentration, this parameter was varied, while all other conditions remained as described above. Each sample in this case was run in duplicate, unless otherwise specified. The 40 μM curve in FIG. 16C has each point in quadruplicate. Similarly, there is an n=9 for each point in the OSMI-1 curve in FIG. 16B.

ncOGT = molecular target: T3, ncOGT (Homo sapiens, UniProt O15294); assay: Radiometric capture assay with Nup62 acceptor and UDP-14C-GlcNAc; format: biochemical
T3 construct: full length human OGT (ncOGT); made in house
T3 sequence (O15294 1-1046): T2 sequence (O15294 1-1046)
Protocol: Radiometric capture assay: Nucleoporin 62 (Nup62) was used as a model substrate. IC50 values of the both inhibitors were determined at range of 0 to 100 μM (eight point, duplicate). OGT antagonists were tested in a reaction mixture containing 18 μM Nup62, 6 μM UDP-^14C-GlcNAc, 100 nM ncOGT, and lx phosphate-buffered saline (1× PBS) (137 mM NaCl, 2.7 mM KCl, 10 mM Na2HPO4, and 1.8 mM KH2PO4, pH 7.4). The Nup62 glycosylation reactions were run for 15 min at 37° C. Reaction mixtures were subsequently quenched by spottinged on Whatman® Protran® nitrocellulose membrane, washed with 1× PBS three times for 15 minutes each. The membranes were air dried and then counted by liquid scintillation counting. The data were analyzed by Microsoft® Excel and Prism 6 (Graphpad®). Robust non-linear variable slope regressions were generated to determine the IC50 and Hill slope values.
In order to evaluate the mode of inhibition of OSMI-1 and UDP-5S-GlcNAc, a series of experiments, as outlined above, were performed with Nup62 as glycosylation substrate. The inhibition test of OSMI-1 was performed by varying the UDP-^14C-GlcNAc concentration from 0 to 0.25 mM while holding concentration of Nup62 constant at 10 μM with four different concentrations of OSMI-1 (0 to 2 μM) in 1× PBS with 100 nM ncOGT and with fixed and saturating concentrations of GST-Nup62 acceptor. The inhibition test of UDP-5S-GlcNAc was performed by varying the UDP-^14C-GlcNAc concentration from 0 to 1 mM while holding concentration of Nup62 constant at 10 μM with five different concentrations of UDP-5S-GlcNAc (0, 1, 5, 10, and 15 μM) in 1× PBS with 100 nM ncOGT. Each reaction was spotted on Whatman® grade P81 ion exchange chromatography paper circles, washed with 1× PBS three times for 15 minutes each. The membranes were air dried and then counted by liquid scintillation counting. Each assay was duplicated in parallel. The data were analyzed by Microsoft® Excel and Prism 6 (Graphpad®). The Michaelis-Menten plots and Ki of both inhibitors calculated under non-linear regression with competitive inhibition mode are shown in FIG. 5.

O=C([C@H](NS(=O)(=O)c1ccc2[nH]c(=O)ccc2c1)c1ccccc1)N1CCN(c2ccccn2)CC1
IC50 (sOGT): 10 µM

CC(=O)N[C@@H]1[C@@H](OC(C)=O)[C@H](OC(C)=O)[C@@H](COC(C)=O)S[C@@H]1OC(C)=O [Ac4-5SGlcNAc, reference compound]
Global O-GlcNAc levels in four cell lines [1]: reduce global O-GlcNAc levels in all four lines examined | Changes in bands detected by ConA, PHA-L, ECL, GSL-I, PNA or DBA [2]: minimal changes | Changes in glycans detected by Jacalin, PHA-E and LCA [2]: dramatic changes | Cellular OGA levels (OGT in CHO cells [3]): reduced cellular OGA | Onset of reduction of global O-GlcNAcylation (OGT in CHO cells [4]; 50 μM, 8-hour time course): only at four hours | Effect on global O-GlcNAcylation (OGT in CHO cells [4]; 24 hours, up to 50 μM): reduced global O-GlcNAcylation to a greater extent than OSMI-1

CC(=O)N[C@@H]1C(OP(=O)(O)OP(=O)(O)OC[C@H]2O[C@@H](n3ccc(=O)[nH]c3=O)[C@H](O)[C@@H]2O)SC(CO)C(O)[C@@H]1O (stereo partly shown) [UDP-5SGlcNAc, reference compound]
IC50 [5]: 78.8 µM | IC50 (ncOGT; 6 μM UDP-GlcNAc, 18 μM GST-Nup62): 11 µM and 11.1 µM | Ki (ncOGT; non-linear regression, competitive inhibition fit, Nup62 substrate, read-out: Inhibition constant (Ki)): 5 µM
